According to ChEMBL document CHEMBL1121895, “Pyrazolodiazepines. 3. 4-Aryl-1,6,7,8-tetrahydro-1,3-dialkylpyrazolo[3,4-e][1,4]diazepines as antidepressant agents” (1981):

Key:
Assay type in all cases: functional
[1] = species: Rattus norvegicus; assay: Time-related potentiation of methamphetamine-induced anorexia in rats at the lowest active dose.; details: read-out: MED
[2] = species: Rattus norvegicus; assay: Potentiation of Methamphetamine effect for intracranial self stimulation(SS) in rats
[3] = system: Rattus norvegicus; assay: Amount of milk ingested after the 120 min methamphetamine-challenges, produced by the compound at 1.25 mg/kg in fasted rats
[4] = system: Rattus norvegicus; assay: Amount of milk ingested after the 120 min methamphetamine-challenges, produced by the compound at 10 mg/kg in fasted rats
[5] = system: Rattus norvegicus; assay: Amount of milk ingested after the 120 min methamphetamine-challenges, produced by the compound at 0.312 mg/kg in fasted rats
[6] = system: Rattus norvegicus; assay: Amount of milk ingested after the 120 min methamphetamine-challenges, produced by the compound at 2.5 mg/kg in fasted rats
[7] = system: Rattus norvegicus; assay: Amount of milk ingested after the 120 min methamphetamine-challenges, produced by the compound at 5 mg/kg in fasted rats
[8] = system: Rattus norvegicus; assay: Amount of milk ingested after the 15 min methamphetamine-challenges, produced by the compound at 0.312 mg/kg in fasted rats
[9] = system: Rattus norvegicus; assay: Amount of milk ingested after the 15 min methamphetamine-challenges, produced by the compound at 0.625 mg/kg in fasted rats
[10] = system: Rattus norvegicus; assay: Amount of milk ingested after the 15 min methamphetamine-challenges, produced by the compound at 1.25 mg/kg in fasted rats
[11] = system: Rattus norvegicus; assay: Amount of milk ingested after the 15 min methamphetamine-challenges, produced by the compound at 10 mg/kg in fasted rats
[12] = system: Rattus norvegicus; assay: Amount of milk ingested after the 15 min methamphetamine-challenges, produced by the compound at 2.5 mg/kg in fasted rats
[13] = system: Rattus norvegicus; assay: Amount of milk ingested after the 15 min methamphetamine-challenges, produced by the compound at 5 mg/kg in fasted rats
[14] = system: Rattus norvegicus; assay: Amount of milk ingested after the 120 min methamphetamine-challenges, produced by the compound at 0.625 mg/kg in fasted rats

| Structure (SMILES) | minimal effective dose [1] [mg/kg] | also measured |
| --- | --- | --- |
| Cc1n[nH]c2c1C(c1cccc(Cl)c1)=NCCN2 | 2.5 | – |
| Cc1nn(C)c2c1C(c1ccc(O)cc1)=NCCN2C | 2.5 | Dose [2]: 5 mg/kg |
| Cc1nn(C)c2c1C(c1cccc(Cl)c1)=NCCN2C | 0.63 | – |
| Cc1nn(C)c2c1C(c1cccc(N=[N+]=[N-])c1)=NCCN2 | 2.5 | – |
| Cc1ccc(C)c(C2=NCCNc3c2c(C)nn3C)c1 | > 10 | – |
| CCc1nn(C)c2c1C(c1cccc(F)c1)=NCCN2 | 2.5 | – |
| Cc1nn(C)c2c1C(c1cccc(Cl)c1)=NCC1CCCCN21 (stereo unspecified) | 2.5 | – |
| Cc1nn(C)c2c1C(c1cccc(Cl)c1)=NCCN2 [ZOMETAPINE] | 0.63 | Dose [2]: 1.25 mg/kg; Amount [3]: 0.2 mL; Amount [4]: 0.1 mL; Amount [5]: 3.6 mL; Amount [6]: 0.2 mL; Amount [7]: 0.1 mL; Amount [8]: 4.2 mL; Amount [9]: 1.1 mL; Amount [10]: 1.7 mL; Amount [11]: 0 mL; Amount [12]: 0 mL; Amount [13]: 0.1 mL; Amount [14]: 0.5 mL |
| CCc1nn(C)c2c1C(c1cccc(C)c1)=NCCN2 | 5 | – |
| Cc1nn(C)c2c1C(c1cccc(C#N)c1)=NCCN2 | 1.25 | – |
| Cc1nn(C)c2c1C(c1cccc(Cl)c1)=NCCN2CCN1CCCC1 | > 10 | – |
| Cc1nn(C)c2c1C(c1cccc([N+](=O)[O-])c1)=NCCN2 | 5 | – |
| Cc1cccc(C2=NCCNc3c2c(C)nn3C)c1 | 2.5 | Dose [2]: 10 mg/kg |
| Cc1cccc(C2=NC(C)(C)CNc3c2c(C)nn3C)c1 | > 10 | – |
| COc1ccc(C2=NCCNc3c2c(C)nn3C)cc1 | > 10 | – |
| Cc1nn(C)c2c1C(c1ccccc1)=NCCN2C | 2.5 | Dose [2]: >10 mg/kg |
| Cc1nn(C)c2c1C(c1ccccc1Cl)=NCCN2 | 2.5 | – |
| Cc1nn(C)c2c1C(c1cccc(N)c1)=NCCN2 | 2.5 | – |
| Cc1nn(C)c2c1C(c1cccc(Cl)c1C)=NCCN2 | 1.25 | Dose [2]: 5 mg/kg |
| CN(C)CCCN1c2ccccc2CCc2ccccc21 [IMIPRAMINE] | 2.5 | Dose [2]: 1.25 mg/kg; Amount [3]: 4.8 mL; Amount [4]: 0 mL; Amount [6]: 2.2 mL; Amount [7]: 0.1 mL; Amount [9]: 4 mL; Amount [10]: 2.7 mL; Amount [11]: 0 mL; Amount [12]: 3.3 mL; Amount [13]: 0.5 mL; Amount [14]: 3.3 mL |
| Cc1nn(C)c2c1C(c1cccc(Br)c1)=NCCN2 | 0.63 | Dose [2]: 5 mg/kg |
| Cc1nn(C)c2c1C(c1cccc(Cl)c1)=[N+]([O-])CCN2 | > 10 | – |
| CCn1nc(C)c2c1NCCN=C2c1cccc(C(F)(F)F)c1 | 0.63 | – |
| Cc1nn(C)c2c1C(c1cccc(O)c1)=NCCN2 | 2.5 | Dose [2]: 10 mg/kg |
| Cc1nn(C)c2c1C(c1ccc(Cl)c(Cl)c1)=NCCN2 | 2.5 | – |

| Structure (SMILES) | minimal effective dose [1] [mg/kg] | also measured |
| --- | --- | --- |
| CCN1CCN=C(c2cccc(Cl)c2)c2c(C)nn(C)c21 | 0.63 | – |
| COc1cc(OC)cc(C2=NCCNc3c2c(C)nn3C)c1 | 2.5 | Dose [2]: 10 mg/kg |
| Cc1nn(C)c2c1C(c1ccccc1Cl)=NCCN2C | 2.5 | – |
| Cc1nn(C)c2c1C(c1cccc(Cl)c1)=NC(C)(C)CN2 | 2.5 | Dose [2]: 10 mg/kg |
| Cc1cccc(C2=NCCN(CCCN(C)C)c3c2c(C)nn3C)c1 | > 10 | – |
| Cc1cc(C)cc(C2=NCCNc3c2c(C)nn3C)c1 | > 10 | – |
| CCc1nn(C)c2c1C(c1cccc(Br)c1)=NCCN2 | 1.25 | Dose [2]: 5 mg/kg |
| Cc1nn(C)c2c1C(c1ccccc1)=NCCN2CCCN(C)C | > 10 | – |
| Cc1nn(C)c2c1C(c1cccc(C(F)(F)F)c1)=NCCN2 | 0.63 | Dose [2]: 1.25 mg/kg |
| Cc1nn(C)c2c1C(c1ccccc1Cl)=NCC(C#N)N2 (stereo unspecified) | > 10 | – |
| Cc1nn(C)c2c1C(c1ccccc1)=NC(C)C(C)N2 (stereo unspecified) | 10 | – |
| Cc1nn(C)c2c1C(c1cccc(Cl)c1)=NCCN2CCCN(C)C | > 10 | – |
| Cc1nn(C)c2c1C(c1cccc(F)c1)=NCCN2 | 2.5 | Dose [2]: 2.5 mg/kg |
| Cc1nn(C)c2c1C(c1cccc(Cl)c1)=NCCN2N=O | 1.25 | – |
| Cc1nn(C)c2c1C(c1ccc(Cl)cc1)=NCCN2 | 2.5 | – |
| CCn1nc(C)c2c1N(C)CCN=C2c1ccccc1Cl | 5 | Dose [2]: >10 mg/kg |
| Cc1nn(C)c2c1C(c1ccccc1Cl)=NCCN2CCCN(C)C | > 10 | – |
| Cc1nn(C)c2c1C(c1cccc(Cl)c1)=NC(C)CN2 (stereo unspecified) | 0.63 | – |
| CC(=O)N1CCN=C(c2cccc(Cl)c2)c2c(C)nn(C)c21 | > 10 | – |
| Cc1nn(C)c2c1C(c1ccccc1)=NCCN2.Cl | 2.5 | – |
| Cc1ccc(C2=NCCN(CCCN(C)C)c3c2c(C)nn3C)cc1 | > 10 | – |
| Cc1ccc(C2=NCCNc3c2c(C)nn3C)cc1 | 2.5 | – |
| Cc1nn(C)c2c1C(c1cccc(F)c1)=NCCN2CCCN(C)C | > 10 | – |
| Cc1nn(C)c2c1C(c1ccccc1)=NCC1CCCCN21 (stereo unspecified) | 5 | – |
| CCc1nn(C)c2c1C(c1cccc(F)c1)=NCCN2CCCN(C)C | > 10 | – |
